Data reported in ChEMBL document CHEMBL1201862, “PubChem BioAssay data set” (2004).
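Tested at 5 concentrations; 48 h exposure; 96-well plates; endpoints linearly interpolated, else capped at highest concentration. At the GI50, growth is halved.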 The source made the active and inactive calls. Cut-off read from the data, not from the text of the source: active = GI50 up to about 1.1 µM and inactive = higher.

Tests used:
Experiment in all cases: inhibition of tumour cell growth, NCI panel, 48 h
COLO 205 = tested on: COLO 205
LOX IMVI = tested on: LOX IMVI
IGROV-1 = tested on: IGROV-1
M14 = tested on: M14
SF-539 = tested on: SF-539
NCI-H460 = tested on: NCI-H460
TK-10 = tested on: TK-10
KM12 = tested on: KM12
SNB-19 = tested on: SNB-19
DMS-114 = tested on: DMS-114
SK-MEL-2 = tested on: SK-MEL-2
CCRF-CEM = tested on: CCRF-CEM
SW-620 = tested on: SW-620
U-251 = tested on: U-251
K562 = tested on: K562
UACC-62 = tested on: UACC-62
OVCAR-4 = tested on: OVCAR-4
CAKI-1 = tested on: CAKI-1
SK-MEL-5 = tested on: SK-MEL-5
Hs-578T = tested on: Hs-578T

Structure (SMILES)	GI50 (COLO 205)	GI50 (LOX IMVI)	GI50 (IGROV-1)	GI50 (M14)	GI50 (SF-539)	GI50 (NCI-H460)	GI50 (TK-10)	GI50 (KM12)	GI50 (SNB-19)	GI50 (DMS-114)	GI50 (SK-MEL-2)	GI50 (CCRF-CEM)	GI50 (SW-620)	GI50 (U-251)	GI50 (K562)	GI50 (UACC-62)	GI50 (OVCAR-4)	GI50 (CAKI-1)	GI50 (SK-MEL-5)	GI50 (Hs-578T)
COC(=O)C(C(=O)C(=O)Nc1ccccc1C(C)=O)c1nc2ccc(Cl)cc2nc1O (configuration not stated)	> 100 µM (inactive)	> 100 µM (inactive)	> 100 µM (inactive)	> 100 µM (inactive)	> 100 µM (inactive)	> 100 µM (inactive)	> 100 µM (inactive)	> 100 µM (inactive)	> 100 µM (inactive)	> 100 µM (inactive)	> 100 µM (inactive)	> 100 µM (inactive)	> 100 µM (inactive)	> 100 µM (inactive)	> 100 µM (inactive)	> 100 µM (inactive)	> 100 µM (inactive)	> 100 µM (inactive)	> 100 µM (inactive)	–
CCCN(CCCC(NC(C)=O)C(=O)NCc1ccccc1)C(=O)N(CCCl)N=O (configuration not stated)	24.4 µM (inactive)	2.11 µM (inactive)	27 µM (inactive)	14.4 µM (inactive)	0.977 µM (active)	0.27 µM (active)	37.8 µM (inactive)	21.1 µM (inactive)	5.13 µM (inactive)	14.4 µM (inactive)	26.9 µM (inactive)	6.87 µM (inactive)	7.4 µM (inactive)	3.53 µM (inactive)	16.9 µM (inactive)	1.04 µM (active)	37.9 µM (inactive)	17.6 µM (inactive)	21.2 µM (inactive)	> 100 µM (inactive)
O=C(CCCNC(=O)OCc1ccccc1)OCc1ccc2c(c1)C(=O)c1ccccc1C2=O	> 7.6 µM (inactive)	> 100 µM (inactive)	48.9 µM (inactive)	> 100 µM (inactive)	23.1 µM (inactive)	> 100 µM (inactive)	34.8 µM (inactive)	> 100 µM (inactive)	51.4 µM (inactive)	> 97.1 µM (inactive)	> 89.7 µM (inactive)	> 100 µM (inactive)	> 100 µM (inactive)	86.1 µM (inactive)	> 100 µM (inactive)	> 100 µM (inactive)	> 100 µM (inactive)	> 56.8 µM (inactive)	> 30.7 µM (inactive)	–
O=C(O)c1ccc(C2C(=O)N[C@@H]3CCC[C@H]23)cc1 (some centres not stated)	> 100 µM (inactive)	> 100 µM (inactive)	> 100 µM (inactive)	> 100 µM (inactive)	> 100 µM (inactive)	> 100 µM (inactive)	> 100 µM (inactive)	> 100 µM (inactive)	> 100 µM (inactive)	> 100 µM (inactive)	> 100 µM (inactive)	> 100 µM (inactive)	> 100 µM (inactive)	> 100 µM (inactive)	> 100 µM (inactive)	> 100 µM (inactive)	> 100 µM (inactive)	> 100 µM (inactive)	> 100 µM (inactive)	–
